# Legend:
# Test in all cases: relative viability (nuclei count vs DMSO), 5 days (fraction); higher = more cells survive
# 201T = tested on: 201T
# Method in brief: (§1)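 Relative viability equals treated-well nuclei counts divided by vehicle-well nuclei counts. Counts came from 4× images of lung cancer cell lines grown in 1536-well plates for 5 days after pin-tool dosing on the day after seeding. Dosing used one drug alone or a fixed anchor-drug dose plus five library-drug doses (not always all listed) in √10 steps, and values are medians of duplicate plates.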
# A-427 = tested on: A-427
# Method in brief: as §1
# COR-L23 = tested on: COR-L23
# Method in brief: as §1
# HARA = tested on: HARA
# Method in brief: as §1
# HCC-15 = tested on: HCC-15
# Method in brief: as §1
# HCC-366 = tested on: HCC-366
# Method in brief: as §1
# HCC-44 = tested on: HCC-44
# Method in brief: as §1
# HCC-78 = tested on: HCC-78
# Method in brief: as §1
# LCLC-103H = tested on: LCLC-103H
# Method in brief: as §1
# LCLC-97TM1 = tested on: LCLC-97TM1
# Method in brief: as §1
# LOU-NH91 = tested on: LOU-NH91
# Method in brief: as §1
# NCI-H1734 = tested on: NCI-H1734
# Method in brief: as §1
# NCI-H1993 = tested on: NCI-H1993
# Method in brief: as §1
# NCI-H2009 = tested on: NCI-H2009
# Method in brief: as §1
# NCI-H2023 = tested on: NCI-H2023
# Method in brief: as §1
# NCI-H2126 = tested on: NCI-H2126
# Method in brief: as §1
# NCI-H441 = tested on: NCI-H441
# Method in brief: as §1
# NCI-H460 = tested on: NCI-H460
# Method in brief: as §1
# NCI-H650 = tested on: NCI-H650
# Method in brief: as §1
# RERF-LC-KJ = tested on: RERF-LC-KJ
# Method in brief: as §1
# SW 1573 = tested on: SW 1573
# Method in brief: as §1
compound,measurement,setting,value
O=c1[nH]c2ccccc2n1C1CCN(CCCC(c2ccc(F)cc2)c2ccc(F)cc2)CC1 [Pimozide] + Cc1nc(NC(=O)N2CCC[C@H]2C(N)=O)sc1-c1ccnc(C(C)(C)C(F)(F)F)c1 [Alpelisib] (partner 2 µM),relative viability,201T; first compound 0.08 µM,0.999
same,relative viability,201T; first compound 0.253 µM,1.02
same,relative viability,201T; first compound 0.8 µM,1.05
same,relative viability,201T; first compound 2.53 µM,1.01
same,relative viability,201T; first compound 8 µM,0.921
same,relative viability,A-427; first compound 0.08 µM,1.08
same,relative viability,A-427; first compound 0.253 µM,1.05
same,relative viability,A-427; first compound 0.8 µM,1.14
same,relative viability,A-427; first compound 2.53 µM,0.987
same,relative viability,A-427; first compound 8 µM,1.01
same,relative viability,COR-L23; first compound 0.08 µM,0.783
same,relative viability,COR-L23; first compound 0.253 µM,0.862
same,relative viability,COR-L23; first compound 0.8 µM,0.763
same,relative viability,COR-L23; first compound 2.53 µM,0.74
same,relative viability,COR-L23; first compound 8 µM,0.695
same,relative viability,HARA; first compound 0.08 µM,0.718
same,relative viability,HARA; first compound 0.253 µM,0.829
same,relative viability,HARA; first compound 0.8 µM,0.565
same,relative viability,HARA; first compound 2.53 µM,0.675
same,relative viability,HARA; first compound 8 µM,0.728
same,relative viability,HCC-15; first compound 0.08 µM,0.913
same,relative viability,HCC-15; first compound 0.253 µM,0.91
same,relative viability,HCC-15; first compound 0.8 µM,0.832
same,relative viability,HCC-15; first compound 2.53 µM,0.782
same,relative viability,HCC-15; first compound 8 µM,0.769
same,relative viability,HCC-366; first compound 0.08 µM,0.354
same,relative viability,HCC-366; first compound 0.253 µM,0.381
same,relative viability,HCC-366; first compound 0.8 µM,0.406
same,relative viability,HCC-366; first compound 2.53 µM,0.425
same,relative viability,HCC-366; first compound 8 µM,0.518
same,relative viability,HCC-44; first compound 0.08 µM,0.856
same,relative viability,HCC-44; first compound 0.253 µM,0.751
same,relative viability,HCC-44; first compound 0.8 µM,0.802
same,relative viability,HCC-44; first compound 2.53 µM,0.736
same,relative viability,HCC-44; first compound 8 µM,0.677
same,relative viability,HCC-78; first compound 0.08 µM,0.406
same,relative viability,HCC-78; first compound 0.253 µM,0.366
same,relative viability,HCC-78; first compound 0.8 µM,0.294
same,relative viability,HCC-78; first compound 2.53 µM,0.293
same,relative viability,HCC-78; first compound 8 µM,0.329
same,relative viability,LCLC-103H; first compound 0.08 µM,0.939
same,relative viability,LCLC-103H; first compound 0.253 µM,0.853
same,relative viability,LCLC-103H; first compound 0.8 µM,1.01
same,relative viability,LCLC-103H; first compound 2.53 µM,0.979
same,relative viability,LCLC-103H; first compound 8 µM,0.912
same,relative viability,LCLC-97TM1; first compound 0.08 µM,0.28
same,relative viability,LCLC-97TM1; first compound 0.253 µM,0.239
same,relative viability,LCLC-97TM1; first compound 0.8 µM,0.207
same,relative viability,LCLC-97TM1; first compound 2.53 µM,0.224
same,relative viability,LCLC-97TM1; first compound 8 µM,0.271
same,relative viability,LOU-NH91; first compound 0.08 µM,0.459
same,relative viability,LOU-NH91; first compound 0.253 µM,0.731
same,relative viability,LOU-NH91; first compound 0.8 µM,0.723
same,relative viability,LOU-NH91; first compound 2.53 µM,0.733
same,relative viability,LOU-NH91; first compound 8 µM,0.7
same,relative viability,NCI-H1734; first compound 0.08 µM,0.675
same,relative viability,NCI-H1734; first compound 0.253 µM,0.664
same,relative viability,NCI-H1734; first compound 0.8 µM,0.68
same,relative viability,NCI-H1734; first compound 2.53 µM,0.744
same,relative viability,NCI-H1734; first compound 8 µM,0.769
same,relative viability,NCI-H1993; first compound 0.08 µM,0.707
same,relative viability,NCI-H1993; first compound 0.253 µM,0.648
same,relative viability,NCI-H1993; first compound 0.8 µM,0.716
same,relative viability,NCI-H1993; first compound 2.53 µM,0.734
same,relative viability,NCI-H1993; first compound 8 µM,0.669
same,relative viability,NCI-H2009; first compound 0.08 µM,1.16
same,relative viability,NCI-H2009; first compound 0.253 µM,1.15
same,relative viability,NCI-H2009; first compound 0.8 µM,1.14
same,relative viability,NCI-H2009; first compound 2.53 µM,1.23
same,relative viability,NCI-H2009; first compound 8 µM,1.05
same,relative viability,NCI-H2023; first compound 0.08 µM,0.524
same,relative viability,NCI-H2023; first compound 0.253 µM,0.632
same,relative viability,NCI-H2023; first compound 0.8 µM,0.533
same,relative viability,NCI-H2023; first compound 2.53 µM,0.535
same,relative viability,NCI-H2023; first compound 8 µM,0.461
same,relative viability,NCI-H2126; first compound 0.08 µM,0.756
same,relative viability,NCI-H2126; first compound 0.253 µM,0.734
same,relative viability,NCI-H2126; first compound 0.8 µM,0.729
same,relative viability,NCI-H2126; first compound 2.53 µM,0.758
same,relative viability,NCI-H2126; first compound 8 µM,0.757
same,relative viability,NCI-H441; first compound 0.08 µM,1.05
same,relative viability,NCI-H441; first compound 0.253 µM,0.733
same,relative viability,NCI-H441; first compound 0.8 µM,0.854
same,relative viability,NCI-H441; first compound 2.53 µM,0.574
same,relative viability,NCI-H441; first compound 8 µM,0.442
same,relative viability,NCI-H460; first compound 0.08 µM,0.476
same,relative viability,NCI-H460; first compound 0.253 µM,0.428
same,relative viability,NCI-H460; first compound 0.8 µM,0.472
same,relative viability,NCI-H460; first compound 2.53 µM,0.487
same,relative viability,NCI-H460; first compound 8 µM,0.493
same,relative viability,NCI-H650; first compound 0.08 µM,1.04
same,relative viability,NCI-H650; first compound 0.253 µM,1.05
same,relative viability,NCI-H650; first compound 0.8 µM,1.09
same,relative viability,NCI-H650; first compound 2.53 µM,1.07
same,relative viability,NCI-H650; first compound 8 µM,1.02
same,relative viability,RERF-LC-KJ; first compound 0.08 µM,0.693
same,relative viability,RERF-LC-KJ; first compound 0.253 µM,0.724
same,relative viability,RERF-LC-KJ; first compound 0.8 µM,0.807
same,relative viability,RERF-LC-KJ; first compound 2.53 µM,0.841
same,relative viability,RERF-LC-KJ; first compound 8 µM,0.711
same,relative viability,SW 1573; first compound 0.08 µM,0.795
same,relative viability,SW 1573; first compound 0.253 µM,0.788
same,relative viability,SW 1573; first compound 0.8 µM,0.764
same,relative viability,SW 1573; first compound 2.53 µM,0.91
same,relative viability,SW 1573; first compound 8 µM,0.743
